Measured values reported in patent US6737383B1, “Herbicidal oxadiazolidines” (priority 1999, dated 2004).

Legend:
[1] = test system: bedstraw; test: Test B pre/postemergence bedstraw; assay type: in vivo, Galium aparine
In short: (§1)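 Response is a visual 0-to-10 score relative to untreated plants, where 0 means no effect and 10 means complete control, taken twelve to sixteen days after application. Treatments went onto soil at planting and onto foliage of 1- to 4-leaf plants, using a surfactant-containing non-phytotoxic solvent.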

[2] = test system: pigweed; test: Test B pre/postemergence pigweed; assay type: in vivo, Amaranthus retroflexus
In short: as §1

[3] = test system: corn; test: Test B pre/postemergence corn; assay type: in vivo, Zea mays
In short: as §1

[4] = test system: velvetleaf; test: Test B pre/postemergence velvetleaf; assay type: in vivo, Abutilon theophrasti
In short: as §1

[5] = test system: sugar beet; test: Test B pre/postemergence sugar beet; assay type: in vivo, Beta vulgaris
In short: as §1

[6] = test system: smallflower flatsedge; test: Test B flood test smallflower flatsedge; assay type: in vivo, Cyperus difformis
In short: (§2)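 Read-out is a visual response score from 0 (no effect) to 10 (complete control), assigned by comparison with untreated controls. Treatment was applied at the 2-leaf stage, and plants stayed in the greenhouse for twelve to sixteen days before scoring.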

[7] = test system: rape; test: Test B pre/postemergence rape; assay type: in vivo, Brassica napus
In short: as §1

[8] = test system: wild oat; test: Test B pre/postemergence wild oat; assay type: in vivo, Avena fatua
In short: as §1

[9] = test system: surinam grass; test: Test B pre/postemergence surinam grass; assay type: in vivo, Brachiaria decumbens
In short: as §1

[10] = test system: blackgrass; test: Test B pre/postemergence blackgrass; assay type: in vivo, Alopecurus myosuroides
In short: as §1

[11] = test system: cocklebur; test: Test B pre/postemergence cocklebur; assay type: in vivo, Xanthium strumarium
In short: as §1

[12] = test system: rice; test: Test B flood test rice; assay type: in vivo, Oryza sativa
In short: as §2

[13] = test system: soybean; test: Test B pre/postemergence soybean; assay type: in vivo, Glycine max
In short: as §1

[14] = test system: wheat; test: Test B pre/postemergence wheat; assay type: in vivo, Triticum aestivum
In short: as §1

[15] = test system: morningglory; test: Test B pre/postemergence morningglory; assay type: in vivo, Ipomoea hederacea
In short: as §1

[16] = test system: giant foxtail; test: Test B pre/postemergence giant foxtail; assay type: in vivo, Setaria faberii
In short: as §1

[17] = Preemergence, Rate 250 g/ha, scale of 0 to 10 where 0 is no effect and 10 is complete control
[18] = Preemergence, Rate 500 g/ha, scale of 0 to 10 where 0 is no effect and 10 is complete control
[19] = Rate 62 g/ha, Postemergence, scale 0 to 10 (0 no effect, 10 complete control)
[20] = Rate 125 g/ha, Postemergence, scale of 0 to 10 where 0 is no effect and 10 is complete control
[21] = Rate 125 g/ha, Preemergence, scale of 0 to 10 where 0 is no effect and 10 is complete control
[22] = Preemergence, Rate 62 g/ha, scale of 0 to 10 where 0 is no effect and 10 is complete control
[23] = Rate 250 g/ha, Postemergence, scale of 0 to 10 where 0 is no effect and 10 is complete control
[24] = Rate 500 g/ha, Postemergence, scale 0 to 10, 0 no effect, 10 complete control
[25] = Rate 62 g/ha, headed Pre-emergence (flood test species), scale 0 to 10 (0 no effect, 10 complete control)
[26] = Rate 125 g/ha, Pre-emergence, flood test species, scale 0 to 10 where 0 is no effect and 10 is complete control
[27] = Rate 250 g/ha, Pre-emergence, flood-test species, scale 0 to 10, 0 is no effect, 10 is complete control
[28] = Rate 500 g/ha, Pre-emergence, flood test species, scale 0 to 10 (0 no effect, 10 complete control)

CCN(CC)C(=O)n1oc(=O)n(C2CC2)c1=O [Compound 297]
0: Bedstraw plant response rating [1, 17] | Plant response rating, Bedstraw [1, 18] | Bedstraw plant response rating [1, 19] | Bedstraw plant response rating [1, 20] | Bedstraw plant response rating [1, 21] | Redroot pigweed plant response rating [2, 22] | Redroot pigweed plant response rating [2, 17] | Plant response rating, Redroot pigweed [2, 18] | Redroot pigweed plant response rating [2, 19] | Redroot pigweed plant response rating [2, 20] | Redroot pigweed plant response rating [2, 21] | Plant response rating, Redroot pigweed [2, 23] | Corn plant response rating [3, 22] | Corn plant response rating [3, 17] | Plant response rating, Corn [3, 18] | Corn plant response rating [3, 19] | Corn plant response rating [3, 20] | Corn plant response rating [3, 21] | Plant response rating, Corn [3, 23] | Corn plant response rating [3, 24] | Velvetleaf plant response rating [4, 22] | Velvetleaf plant response rating [4, 17] | Plant response rating, Velvetleaf [4, 18] | Velvetleaf plant response rating [4, 19] | Velvetleaf plant response rating [4, 20] | Velvetleaf plant response rating [4, 21] | Plant response rating, Velvetleaf [4, 23] | Sugarbeets plant response rating [5, 22] | Sugarbeets plant response rating [5, 17] | Plant response rating, Sugarbeets [5, 18] | Sugarbeets plant response rating [5, 19] | Sugarbeets plant response rating [5, 20] | Sugarbeets plant response rating [5, 21] | Plant response rating, Sugarbeets [5, 23] | S. Flatsedge plant response rating [6, 25] | S. Flatsedge plant response rating [6, 26] | Rape plant response rating [7, 22] | Rape plant response rating [7, 17] | Plant response rating, Rape [7, 18] | Rape plant response rating [7, 19] | Rape plant response rating [7, 20] | Rape plant response rating [7, 21] | Plant response rating, Rape [7, 23] | Wild oats plant response rating [8, 22] | Wild oats plant response rating [8, 17] | Plant response rating, Wild oats [8, 18] | Wild oats plant response rating [8, 19] | Wild oats plant response rating [8, 20] | Plant response rating, Wild oats [8, 23] | B. signalgrass plant response rating [9, 22] | B. signalgrass plant response rating [9, 17] | Plant response rating, B. signalgrass [9, 18] | B. signalgrass plant response rating [9, 19] | B. signalgrass plant response rating [9, 20] | B. signalgrass plant response rating [9, 21] | Plant response rating, B. signalgrass [9, 23] | B. signalgrass plant response rating [9, 24] | Blackgrass plant response rating [10, 22] | Blackgrass plant response rating [10, 17] | Plant response rating, Blackgrass [10, 18] | Blackgrass plant response rating [10, 19] | Blackgrass plant response rating [10, 20] | Blackgrass plant response rating [10, 21] | Plant response rating, Blackgrass [10, 23] | Blackgrass plant response rating [10, 24] | Cocklebur plant response rating [11, 22] | Cocklebur plant response rating [11, 17] | Plant response rating, Cocklebur [11, 18] | Cocklebur plant response rating [11, 19] | Cocklebur plant response rating [11, 20] | Cocklebur plant response rating [11, 21] | Plant response rating, Cocklebur [11, 23] | Cocklebur plant response rating [11, 24] | Rice plant response rating [12, 25] | Rice plant response rating [12, 26] | Rice plant response rating [12, 27] | Rice plant response rating [12, 28] | Soybean plant response rating [13, 22] | Soybean plant response rating [13, 17] | Plant response rating, Soybean [13, 18] | Soybean plant response rating [13, 21] | Wheat plant response rating [14, 22] | Wheat plant response rating [14, 17] | Plant response rating, Wheat [14, 18] | Wheat plant response rating [14, 19] | Wheat plant response rating [14, 20] | Wheat plant response rating [14, 21] | Plant response rating, Wheat [14, 23] | Morningglory plant response rating [15, 22] | Morningglory plant response rating [15, 17] | Plant response rating, Morningglory [15, 18] | Morningglory plant response rating [15, 19] | Morningglory plant response rating [15, 20] | Morningglory plant response rating [15, 21] | Plant response rating, Morningglory [15, 23] | Giant foxtail plant response rating [16, 22] | Giant foxtail plant response rating [16, 19] | Giant foxtail plant response rating [16, 20] | Giant foxtail plant response rating [16, 21] | Plant response rating, Giant foxtail [16, 23]
2: Soybean plant response rating [13, 19]
3: S. Flatsedge plant response rating [6, 27] | S. Flatsedge plant response rating [6, 28] | Soybean plant response rating [13, 20] | Plant response rating, Soybean [13, 23]
7: Giant foxtail plant response rating [16, 17] | Plant response rating, Giant foxtail [16, 18]
